# Measured values as given in patent publication US7122643B2, “Cytostatic lanthanum compounds” (Faustus Forschungs Cie. Translational Cancer Research GmbH, priority 2001, dated 2006).
# Columns and labels:
# [1] = tested on: over 50 human tumour cell lines
# [2] = tested on: 13 human tumour xenografts and 10 human tumour cell lines
# [3] = mean over 13 human tumour xenografts and 10 human tumour cell lines
substance,measurement,setting,value
"[tris(1,10-phenantrolin)lanthanum(III)]trithiocyanate",Cytostatic effectiveness (in words),"[1]; over 50 human tumour cell lines, 48-h",Good effectiveness
same,Activity relative to average of the panel,[1]; some melanoma and kidney cell carcinoma cell lines,Above average activities
same,Cytostatic activity (in words),[2]; 13 human tumour xenografts and 10 human tumour cell lines,good cytostatic activity
same,Activity relative to average of the panel,"[2]; mammary carcinoma cell lines MCF7, MDA468A, parvicellular bronchial carcinoma cell line DMS 114, one each of melanoma, ovarian, kidney cell and non-parvicellular bronchial carcinoma xenografts",Above average activities
same,Mean IC50,[2]; [3],3.60 µg/mL
same,Mean IC90,[2]; [3],12.1 µg/mL
same,Tumour type selectivity,[2]; prostate and colorectal carcinoma,selectivity for prostate and colorectal carcinoma
same,IC50,"[2]; read-out: Mean IC50, mean over 13 human tumour xenografts and 10 human tumour cell lines",4.21 µM
same,IC90,"[2]; read-out: Mean IC90, mean over 13 human tumour xenografts and 10 human tumour cell lines",14.2 µM
